From PubChem BioAssay AID330 (DTP/NCI, 2004)
Values joined by “and” are separate entries in the source; they are usually repeats but may differ in a detail not shown here. Identical values can stand only once. Toxic doses and inconclusive results are not listed. How the source made its calls: active means survival T/C of 150% or more; inactive means T/C below 125% in these data.

System: P388 leukemia ip, CD2F1 mice, survival T/C
Assay: NCI In Vivo Anticancer Drug Screen. Data for tumor model P388 Leukemia (intraperitoneal) in CD2F1 (CDF1) mice
Conditions: endpoint: median survival time, higher = longer survival
How it was run: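 Mice carrying the transplanted tumor received test compound or vehicle. Survival was recorded in each group, and the value is the treated-group measurement divided by that of the vehicle-treated control group.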

[1] = dose: 100.0 mg/kg/injection, schedule: Q01DX009 (ip), vehicle: saline with Tween-80
[2] = dose: 200.0 mg/kg/injection, schedule: Q01DX009 (ip), vehicle: saline with Tween-80
[3] = dose: 400.0 mg/kg/injection, schedule: Q01DX009 (ip), vehicle: saline with Tween-80
[4] = dose: 50.0 mg/kg/injection, schedule: Q01DX005 (ip), vehicle: saline
[5] = dose: 100.0 mg/kg/injection, schedule: Q01DX001 (ip), vehicle: saline with Tween-80
[6] = dose: 200.0 mg/kg/injection, schedule: Q01DX001 (ip), vehicle: saline with Tween-80
[7] = dose: 50.0 mg/kg/injection, schedule: Q01DX005 (ip), vehicle: saline with Tween-80
[8] = dose: 100.0 mg/kg/injection, schedule: Q01DX005 (ip), vehicle: saline with Tween-80
[9] = dose: 12.5 mg/kg/injection, schedule: Q01DX009 (ip), vehicle: saline
[10] = dose: 25.0 mg/kg/injection, schedule: Q01DX009 (ip), vehicle: saline
[11] = dose: 50.0 mg/kg/injection, schedule: Q01DX009 (ip), vehicle: saline with Tween-80
[12] = dose: 50.0 mg/kg/injection, schedule: Q01DX009 (ip), vehicle: saline
[13] = dose: 100.0 mg/kg/injection, schedule: Q01DX001 (ip), vehicle: saline
[14] = dose: 200.0 mg/kg/injection, schedule: Q01DX001 (ip), vehicle: saline
[15] = dose: 400.0 mg/kg/injection, schedule: Q01DX001 (ip), vehicle: saline
[16] = dose: 12.5 mg/kg/injection, schedule: Q01DX005 (ip), vehicle: Klucel (hydroxypropylcellulose) (HPC)
[17] = dose: 25.0 mg/kg/injection, schedule: Q01DX005 (ip), vehicle: Klucel (hydroxypropylcellulose) (HPC)
[18] = dose: 50.0 mg/kg/injection, schedule: Q01DX005 (ip), vehicle: Klucel (hydroxypropylcellulose) (HPC)

Measured: T/C

Nc1nc(SCc2ccccc2[N+](=O)[O-])c2[nH]cnc2n1
inactive: [1] 104 % of control | dose: 100.0 mg/kg/injection, schedule: Q04DX003 (ip), vehicle: saline with Tween-80 100 % of control | [2] 95 % of control | dose: 200.0 mg/kg/injection, schedule: Q04DX003 (ip), vehicle: saline with Tween-80 100 % of control | [3] 90 % of control | dose: 400.0 mg/kg/injection, schedule: Q04DX003 (ip), vehicle: saline with Tween-80 91 % of control

CC(NC(=O)OCc1ccccc1)C(=O)NC(CCC(=O)O)C(=O)O (stereo not given)
inactive: [4] 97 % of control | dose: 100.0 mg/kg/injection, schedule: Q01DX005 (ip), vehicle: saline 101 % of control | dose: 200.0 mg/kg/injection, schedule: Q01DX005 (ip), vehicle: saline 106 % of control

CCO/C=C1\CC(=O)N(c2ccc(F)c(Cl)c2)C1=O
inactive: dose: 25.0 mg/kg/injection, schedule: Q01DX001 (ip), vehicle: saline with Tween-80 100 % of control | dose: 50.0 mg/kg/injection, schedule: Q01DX001 (ip), vehicle: saline with Tween-80 100 % of control | [5] 98 % of control and 100 % of control | [6] 109 % of control | dose: 400.0 mg/kg/injection, schedule: Q01DX001 (ip), vehicle: saline with Tween-80 100 % of control

[Ni].c1c[nH]cn1.c1c[nH]cn1.c1c[nH]cn1.c1c[nH]cn1.c1c[nH]cn1.c1c[nH]cn1
inactive: dose: 6.25 mg/kg/injection, schedule: Q01DX005 (ip), vehicle: saline 92 % of control | dose: 12.5 mg/kg/injection, schedule: Q01DX005 (ip), vehicle: saline 86 % of control | dose: 25.0 mg/kg/injection, schedule: Q01DX005 (ip), vehicle: saline 87 % of control | [4] 100 % of control

Clc1nnc(-c2ccccc2)s1
inactive: dose: 25.0 mg/kg/injection, schedule: Q04DX003 (ip), vehicle: Klucel (hydroxypropylcellulose) (HPC) 100 % of control | dose: 50.0 mg/kg/injection, schedule: Q04DX003 (ip), vehicle: Klucel (hydroxypropylcellulose) (HPC) 102 % of control | dose: 100.0 mg/kg/injection, schedule: Q04DX003 (ip), vehicle: Klucel (hydroxypropylcellulose) (HPC) 100 % of control

O=c1[nH]cnc2c1ccc1[nH]ncc12
inactive: dose: 6.25 mg/kg/injection, schedule: Q01DX005 (ip), vehicle: saline with Tween-80 88 % of control | dose: 12.5 mg/kg/injection, schedule: Q01DX005 (ip), vehicle: saline with Tween-80 90 % of control | dose: 25.0 mg/kg/injection, schedule: Q01DX005 (ip), vehicle: saline with Tween-80 86 % of control | [7] 97 % of control | [8] 99 % of control

Cc1ccccc1OC(=O)Nc1ccc(C(=O)O)c(O)c1
inactive: [5] 95 % of control | [6] 109 % of control

CCCC1CN2CCc3cc(OC)c(OC)cc3C2C/C1=C/C(=O)OCC (stereo not given)
inactive: [9] 90 % of control | [10] 92 % of control | [11] 90 % of control | [12] 96 % of control | [2] 89 % of control

Cc1cc2c3c(cccc3c1)C(=O)c1ccccc1-2
inactive: [7] 102 % of control | [8] 102 % of control | dose: 200.0 mg/kg/injection, schedule: Q01DX005 (ip), vehicle: saline with Tween-80 93 % of control

O=C(Nc1ccc(C(=O)Nc2cccc(C3=NCCN3)c2)cc1)Nc1ccc(C(=O)Nc2cccc(C3=NCCN3)c2)cc1
inactive: [13] 108 % of control | [14] 100 % of control | [15] 116 % of control

CCOc1ccc(/C=N/NC(=O)c2ccccc2NC(=O)c2ccccc2Cl)cc1OC
inactive: dose: 30.0 mg/kg/injection, schedule: Q01DX005 (ip), vehicle: Klucel (hydroxypropylcellulose) (HPC) 101 % of control | dose: 60.0 mg/kg/injection, schedule: Q01DX005 (ip), vehicle: Klucel (hydroxypropylcellulose) (HPC) 101 % of control and 90 % of control | dose: 120.0 mg/kg/injection, schedule: Q01DX005 (ip), vehicle: Klucel (hydroxypropylcellulose) (HPC) 101 % of control | dose: 240.0 mg/kg/injection, schedule: Q01DX005 (ip), vehicle: Klucel (hydroxypropylcellulose) (HPC) 91 % of control

CC(c1ccc2c(c1)CCC1C2C2OC2C2(O)CC=CC(=O)C12C)C1CC2(C)OC2(C)C(O)O1 (stereo not given)
inactive: dose: 3.0 mg/kg/injection, schedule: Q01DX009 (ip), vehicle: saline with Tween-80 113 % of control | dose: 6.0 mg/kg/injection, schedule: Q01DX009 (ip), vehicle: saline with Tween-80 100 % of control | dose: 12.0 mg/kg/injection, schedule: Q01DX009 (ip), vehicle: saline with Tween-80 109 % of control | dose: 24.0 mg/kg/injection, schedule: Q01DX009 (ip), vehicle: saline with Tween-80 107 % of control | dose: 48.0 mg/kg/injection, schedule: Q01DX009 (ip), vehicle: saline with Tween-80 102 % of control

C=C1C(=O)OC2/C=C(\C)C(=O)CC3OC(C)(C)OC3(C)CC(OC(=O)/C(C)=C/C)C12 (stereo not given)
inactive: dose: 10.0 mg/kg/injection, schedule: Q01DX009 (ip), vehicle: saline with Tween-80 99 % of control | dose: 20.0 mg/kg/injection, schedule: Q01DX009 (ip), vehicle: saline with Tween-80 105 % of control | dose: 40.0 mg/kg/injection, schedule: Q01DX009 (ip), vehicle: saline with Tween-80 90 % of control

O=C(Cn1ccnc1[N+](=O)[O-])N(CCO)CCO
inactive: dose: 6.25 mg/kg/injection, schedule: Q01DX009 (ip), vehicle: saline 102 % of control | [9] 111 % of control | [10] 111 % of control | [12] 105 % of control | dose: 100.0 mg/kg/injection, schedule: Q01DX009 (ip), vehicle: saline 105 % of control | dose: 200.0 mg/kg/injection, schedule: Q01DX009 (ip), vehicle: saline 102 % of control | dose: 400.0 mg/kg/injection, schedule: Q01DX009 (ip), vehicle: saline 105 % of control | dose: 800.0 mg/kg/injection, schedule: Q01DX009 (ip), vehicle: saline 102 % of control

C[C@]12CCC(=O)C(O)=C1CC[C@H]1[C@@H]3CCC(=O)[C@@]3(C)CC[C@@]12O
inactive: [16] 101 % of control | [17] 109 % of control | [18] 104 % of control | dose: 100.0 mg/kg/injection, schedule: Q01DX005 (ip), vehicle: Klucel (hydroxypropylcellulose) (HPC) 104 % of control | dose: 200.0 mg/kg/injection, schedule: Q01DX005 (ip), vehicle: Klucel (hydroxypropylcellulose) (HPC) 96 % of control

CC(=O)CC(C)(C)c1ccccc1
inactive: dose: 25.0 mg/kg/injection, schedule: Q01DX009 (ip), vehicle: saline with Tween-80 106 % of control | [11] 104 % of control | [1] 107 % of control and 108 % of control | [2] 103 % of control and 116 % of control | [3] 113 % of control and 95 % of control

COc1cc2c(cc1OC)/C(=N/N)CCC2
inactive: dose: 3.13 mg/kg/injection, schedule: Q01DX009 (ip), vehicle: water 100 % of control | dose: 6.25 mg/kg/injection, schedule: Q01DX009 (ip), vehicle: water 100 % of control | dose: 12.5 mg/kg/injection, schedule: Q01DX009 (ip), vehicle: water 95 % of control | dose: 25.0 mg/kg/injection, schedule: Q01DX009 (ip), vehicle: water 91 % of control | dose: 50.0 mg/kg/injection, schedule: Q01DX009 (ip), vehicle: water 91 % of control

S=C1CCCCCN1
inactive: [16] 107 % of control | [17] 100 % of control | [18] 103 % of control and 104 % of control

O=C(O)C(O)C(O)C(O)C(O)c1nn[nH]n1 (stereo not given)
inactive: [13] 101 % of control | [14] 98 % of control | [15] 93 % of control

CCCCC(O)/C=C(C)/C=C/C=C/C(=O)N1CCCC1=O (stereo not given)
inactive: dose: 25.0 mg/kg/injection, schedule: Q01DX009 (ip), vehicle: Klucel (hydroxypropylcellulose) (HPC) 113 % of control | dose: 50.0 mg/kg/injection, schedule: Q01DX009 (ip), vehicle: Klucel (hydroxypropylcellulose) (HPC) 113 % of control | dose: 100.0 mg/kg/injection, schedule: Q01DX009 (ip), vehicle: Klucel (hydroxypropylcellulose) (HPC) 110 % of control | dose: 200.0 mg/kg/injection, schedule: Q01DX009 (ip), vehicle: Klucel (hydroxypropylcellulose) (HPC) 110 % of control | dose: 400.0 mg/kg/injection, schedule: Q01DX009 (ip), vehicle: Klucel (hydroxypropylcellulose) (HPC) 118 % of control
